Test results published in ChEMBL document CHEMBL1128364 (J Med Chem, 1995).

Legend:
[1] = biological target: Vasopressin V2 receptor (Rattus norvegicus) (UniProt Q00788); test: Antidiuretic activity at V2 receptor.; conditions: Urine
[2] = biological target: T1, Oxytocin receptor (Rattus norvegicus) (UniProt P70536); test: (§1) Compound was evaluated for the oxytocic activity with out Mg2+.
T1 sequence (whole entry): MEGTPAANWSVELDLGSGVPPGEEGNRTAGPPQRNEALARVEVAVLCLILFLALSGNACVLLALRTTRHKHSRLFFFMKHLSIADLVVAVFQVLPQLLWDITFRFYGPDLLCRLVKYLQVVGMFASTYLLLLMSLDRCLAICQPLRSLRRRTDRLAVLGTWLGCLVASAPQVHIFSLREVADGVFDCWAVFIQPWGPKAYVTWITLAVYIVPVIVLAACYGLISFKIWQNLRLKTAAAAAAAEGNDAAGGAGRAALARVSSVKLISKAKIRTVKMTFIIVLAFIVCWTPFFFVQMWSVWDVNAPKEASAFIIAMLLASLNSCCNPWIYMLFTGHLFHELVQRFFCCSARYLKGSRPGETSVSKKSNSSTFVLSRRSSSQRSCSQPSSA

[3] = biological target: T1, Oxytocin receptor (Rattus norvegicus); test: (§2) Compound was evaluated for the oxytocic activity with 0.5 mM Mg2+.
[4] = tested on: Rattus norvegicus; test: (§3) In vivo activity for the anti-oxytocic activity.; format: functional
[5] = biological target: T2, Oxytocin receptor (Rattus norvegicus, UniProt P70536); test: In vitro activity was determined for the anti-oxytocic activity with 0.5 mM Mg2+.; conditions: read-out: pA2 (converted)
T2 sequence (P70536 whole entry): T1 sequence (whole entry)

[6] = biological target: T2, Oxytocin receptor; test: In vitro activity for the anti-oxytocic activity with out Mg2+; conditions: read-out: pA2 (converted)
[7] = biological target: T3, Vasopressin V1a receptor (Rattus norvegicus, UniProt P30560); test: Compound was evaluated for the anti-vasopressor activity at V1a receptor..; conditions: read-out: pA2 (converted)
[8] = biological target: Vasopressin V2 receptor (Rattus norvegicus) (UniProt Q00788); test: (§4) Antidiuretic activity at V2 receptor; format: tissue-based; conditions: Urine
[9] = biological target: Vasopressin V1a receptor (Rattus norvegicus) (UniProt P30560); test: (§5) Anti-vasopressor activity at V1a receptor
[10] = tested on: Rattus norvegicus; test: as §3; format: functional, organism-based; conditions: read-out: pA2 (converted)
[11] = biological target: T3, Vasopressin V1a receptor; test: as §5; conditions: read-out: pA2 (converted)
[12] = biological target: T2, Oxytocin receptor; test: as §1; conditions: read-out: pA2 (converted)
[13] = biological target: T2, Oxytocin receptor; test: as §2; conditions: read-out: pA2 (converted)
[14] = biological target: Vasopressin V2 receptor (Rattus norvegicus, UniProt Q00788); test: as §4; format: tissue-based, Urine; conditions: read-out: pA2 (converted)
[15] = biological target: T2, Oxytocin receptor; test: In vitro activity for the anti-oxytocic activity with out Mg2+.; conditions: read-out: pA2 (converted)

Vasopressin V2 receptor (Rattus norvegicus), sequence (Q00788 whole entry): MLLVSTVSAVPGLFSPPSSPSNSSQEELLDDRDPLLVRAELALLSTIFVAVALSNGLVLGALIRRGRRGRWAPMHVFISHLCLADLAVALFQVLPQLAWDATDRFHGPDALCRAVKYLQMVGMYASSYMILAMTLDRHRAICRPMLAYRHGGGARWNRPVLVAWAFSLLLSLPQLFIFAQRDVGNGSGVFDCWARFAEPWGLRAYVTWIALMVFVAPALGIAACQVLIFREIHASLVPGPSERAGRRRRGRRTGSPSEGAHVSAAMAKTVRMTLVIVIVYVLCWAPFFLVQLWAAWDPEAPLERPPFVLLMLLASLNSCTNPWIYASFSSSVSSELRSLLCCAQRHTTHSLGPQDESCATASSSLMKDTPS
T3 sequence (P30560 whole entry): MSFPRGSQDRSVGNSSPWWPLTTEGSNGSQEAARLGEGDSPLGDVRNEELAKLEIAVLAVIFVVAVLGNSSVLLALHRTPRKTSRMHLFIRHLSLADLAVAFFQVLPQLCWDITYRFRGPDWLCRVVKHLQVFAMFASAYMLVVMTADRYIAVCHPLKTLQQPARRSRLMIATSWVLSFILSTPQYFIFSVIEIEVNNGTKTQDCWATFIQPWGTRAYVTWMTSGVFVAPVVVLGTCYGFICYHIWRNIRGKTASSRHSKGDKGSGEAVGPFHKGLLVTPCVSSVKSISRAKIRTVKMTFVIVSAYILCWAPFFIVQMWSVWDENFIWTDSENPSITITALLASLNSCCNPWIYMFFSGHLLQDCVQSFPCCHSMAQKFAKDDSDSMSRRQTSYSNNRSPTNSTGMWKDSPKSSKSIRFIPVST
Vasopressin V2 receptor, sequence (Q00788 whole entry): as the sequence (Q00788 whole entry) above
Vasopressin V1a receptor (Rattus norvegicus), sequence (P30560 whole entry, looked up): as the sequence (P30560 whole entry) above

SMILES: CC[C@H](C)[C@@H]1NC(=O)[C@H](Cc2ccc(O)cc2)NC(=O)[C@@H](N)CSSC[C@@H](C(=O)N2CCC[C@H]2C(=O)N[C@@H](CC(C)C)C(=O)NCC(N)=O)NC(=O)[C@H](CC(N)=O)NC(=O)[C@H](CCC(N)=O)NC1=O
- Antidiuretic activity [1]: 4 U mg-1
- Oxytocic activity [2]: 520 U mg-1
- Oxytocic activity [3]: 486 U mg-1

SMILES: N=C(N)NCCC[C@H](NC(=O)[C@@H]1CCCN1C(=O)[C@@H]1CSSC[C@H](N)C(=O)N[C@@H](Cc2ccc(O)cc2)C(=O)N[C@@H](Cc2ccccc2)C(=O)N[C@@H](CCC(N)=O)C(=O)N[C@@H](CC(N)=O)C(=O)N1)C(=O)NCC(N)=O
- Antidiuretic activity [1]: 323 U mg-1
- Oxytocic activity [3]: 25.5 U mg-1

SMILES: CCOc1ccc(C[C@H]2NC(=O)CC3(CCCCC3)SSC[C@H](C(=O)N3CCC[C@H]3C(=O)N[C@@H](CCCN=C(N)N)C(=O)NCC(N)=O)NC(=O)[C@H](CC(N)=O)NC(=O)[C@H](C(C)C)NC(=O)[C@H](Cc3ccccc3)NC2=O)cc1 [listing 1 of 2 here]
- ED [4]: 4.8 nM/kg

SMILES: COc1ccc(C[C@@H]2NC(=O)CC3(CCCCC3)SSC[C@H](C(=O)N3CCC[C@H]3C(=O)N[C@@H](CCCN=C(N)N)C(=O)NCC(N)=O)NC(=O)[C@H](CC(N)=O)NC(=O)[C@H](CCC(N)=O)NC(=O)[C@H](Cc3ccccc3)NC2=O)cc1 [listing 1 of 2 here]
- ED [4]: 17 nM/kg

SMILES: COc1ccc(C[C@@H]2NC(=O)CC3(CCCCC3)SSC[C@@H](C(=O)N3CCC[C@H]3C(=O)N[C@@H](CCCN=C(N)N)C(=O)NCC(N)=O)NC(=O)[C@H](CC(N)=O)NC(=O)[C@H](CCC(N)=O)NC(=O)[C@H](Cc3ccccc3)NC2=O)cc1
- Kb [5]: 57.5 nM
- Kb [6]: 7.41 nM
- Kb [7]: 2.4 nM

SMILES: CC[C@H](C)[C@@H]1NC(=O)[C@H](Cc2ccc(O)cc2)NC(=O)[C@H](N)CSSC[C@H](C(=O)N2CCC[C@H]2C(=O)N[C@@H](CC(C)C)C(=O)NCC(N)=O)NC(=O)[C@H](CC(N)=O)NC(=O)[C@H](CCC(N)=O)NC1=O
- Antidiuretic activity [1]: < 0.002 U mg-1
- Oxytocic activity [2]: 0.62 U mg-1

SMILES: CCOc1ccc(C[C@@H]2NC(=O)CC3(CCCCC3)SSC[C@@H](C(=O)N3CCC[C@H]3C(=O)N[C@@H](CCCN=C(N)N)C(=O)NCC(N)=O)NC(=O)[C@H](CC(N)=O)NC(=O)[C@H](C(C)C)NC(=O)[C@H](Cc3ccccc3)NC2=O)cc1
- ED [8]: 1.9 nM/kg
- ED [4]: 13 nM/kg
- ED [9]: 0.14 nM/kg
- Kb [10]: 182 nM
- Kb [11]: 6.92 nM

SMILES: NC(=O)CC[C@@H]1NC(=O)[C@H](Cc2ccccc2)NC(=O)[C@H](Cc2ccc(O)cc2)NC(=O)[C@@H](N)CSSC[C@H](C(=O)N2CCC[C@H]2C(=O)N[C@@H](CCCN=C(N)N)C(=O)NCC(N)=O)NC(=O)[C@H](CC(N)=O)NC1=O
- Kb [12]: 214 nM
- Kb [13]: 5750 nM

SMILES: COc1ccc(C[C@@H]2NC(=O)CC3(CCCCC3)SSC[C@H](C(=O)N3CCC[C@H]3C(=O)N[C@@H](CCCN=C(N)N)C(=O)NCC(N)=O)NC(=O)[C@H](CC(N)=O)NC(=O)[C@H](CCC(N)=O)NC(=O)[C@H](Cc3ccccc3)NC2=O)cc1 [listing 2 of 2 here]
- Kb [5]: 25.1 nM
- Kb [14]: 2880 nM
- Kb [10]: 251 nM
- Kb [11]: 13.5 nM
- Kb [15]: 13.5 nM

SMILES: CCOc1ccc(C[C@H]2NC(=O)CC3(CCCCC3)SSC[C@H](C(=O)N3CCC[C@H]3C(=O)N[C@@H](CCCN=C(N)N)C(=O)NCC(N)=O)NC(=O)[C@H](CC(N)=O)NC(=O)[C@H](C(C)C)NC(=O)[C@H](Cc3ccccc3)NC2=O)cc1 [listing 2 of 2 here]
- Kb [10]: 69.2 nM
- Kb [11]: 8.71 nM
